Assay results from patent publication US20190388495A1, “Pharmaceutical Composition for Preventing or Treating Hypersensitivity Immune Disease, and Method for Producing Same” (QURATIS INC., priority 2017, published 2019).

System: plasmacytoid dendritic cells
Assay: IL-10 secretion from plasmacytoid dendritic cells induced with various toll-like receptor agonists, ELISA (Example 3)
Type: cell-based, C57BL/6 mice
Details: stimulated with ODN1826 1 μg/ml, 24 hours; vs non-treatment
Description: In order to check the immune tolerance inducing effect of various toll-like receptor agonists, differentiation into the plasmacytoid dendritic cells was induced by the same method as in Example 1. Ligands listed in Table 2 were used as the toll-like receptor agonist. From the cells obtained after 8 days of culture, the plasmacytoid dendritic cells were separated at a purity equal to or greater than 85% by a plasmacytoid dendritic cell separation kit (Miltenyi Biotec, Auburn, Calif.) and a magnetic cell sorting system (Vario MACS: Miltenyi Biotec, Auburn, Calif.). The separated cells (5×10^5 cells/ml) were inoculated into a 48 well plate. ODN1826 (1 μg/ml) was applied thereto and the cells were cultured for 24 hours. Then, supernatant was separated. The secretion pattern of the immunosuppressive cytokine IL-10 was then checked by ELISA (enzyme linked immunosorbent assay).

## Pam3 [TLR2 agonist]
  expression level of IL-10 from plasmacytoid dendritic cells differentiated via treatment with the agonist: significantly increased

## LPS [TLR4 agonist]
  expression level of IL-10 from plasmacytoid dendritic cells differentiated via treatment with the agonist: significantly increased

## CC(C)Cn1cnc2c(N)nc3ccccc3c21 [TLR7 agonist, Imiquimod]
  expression level of IL-10 from plasmacytoid dendritic cells differentiated via treatment with the agonist: significantly increased
